Source: patent publication US20170146519A1, “STING AGONISTS AND METHODS OF SELECTING STING AGONISTS” (priority 2015, published 2017)

Legend:
[1] = tested on: IRF3 S386 phosphorylation; type: cell-based, human
[2] = tested on: human peripheral blood mononuclear cells (PBMCs); type: cell-based
[3] = tested on: IRF3/IFN-dependent genes in THF; type: cell-based, human
[4] = tested on: Chikungunya virus (CHIKV); test: Mouse model of CHIKV infection, serum viral titers; type: in vivo, C57Bl/6J mice
IRF3 phosphorylation = test: Immunoblot of IRF3 phosphorylation in RAW264.7 cells; type: cell-based, mouse; settings: RAW264.7, 100 μM DMXAA
Source text: (§1) Multiple molecular analogs of G10 were thus constructed in an attempt to identify one that is active in both human and mouse cells. While this allowed characterization of essential and nonessential moieties within the molecule (FIG. 17), no derivatives were identified that were active across species. […] As such, the compound has been explored for multiple immunotherapeutic uses including anti-angiogenesis (Cao Z et al, Cancer Res 61, 1517-1521 (2001); incorporated by reference herein), vaccine adjuvanticity (Tang C K et al, PLoS ONE 8, e60038 (2013); incorporated by reference herein), anti-tumor immunology and antiviral activity (Guo F et al, Antimicrob Agents Chemother 59, 1273-1281 (2015); incorporated by reference herein). Patterns of DMXAA-stimulated innate immune activation in murine cells were then explored to evaluate their resemblance with those induced by G10 in human cells. FIG. 11A illustrates that DMXAA-induced IRF3 phosphorylation in RAW264.7 macrophage-like cells is detectable by 1 h post-treatment. […]

[5] = tested on: innate antiviral genes IFNβ, ISG15, IFIT2, Viperin; test: qPCR of innate antiviral genes in RAW264.7 cells; type: cell-based, mouse; settings: RAW264.7, 8 h, range of DMXAA concentrations
Source text: as §1
Total RNA was isolated from cells and DNased using a DNA Free RNA Isolation kit according to the manufacturer's protocol (Zymo Research) and quantified by UV spectrometry. […]

mouse STING-CTD = biological target: T1, mouse STING-CTD (Mus musculus, UniProt Q3TBT3); test: Thermal shift assay (differential scanning fluorimetry), mouse STING-CTD; type: binding; settings: 1 μg recombinant protein, SYPRO Orange, various concentrations
T1 construct: mouse STING-CTD (AA 137-378); 6xHIS; made in house; host or cells: E. coli BL21 (DE3)pLysS
T1 sequence (Q3TBT3 137-378): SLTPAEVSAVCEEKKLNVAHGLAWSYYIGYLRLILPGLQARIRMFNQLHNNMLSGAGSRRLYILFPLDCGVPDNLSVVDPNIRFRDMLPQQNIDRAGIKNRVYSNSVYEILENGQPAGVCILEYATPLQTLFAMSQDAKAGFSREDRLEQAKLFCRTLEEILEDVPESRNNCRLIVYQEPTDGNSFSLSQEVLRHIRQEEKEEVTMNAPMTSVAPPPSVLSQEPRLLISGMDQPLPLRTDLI

[6] = tested on: NF-κB-dependent genes (IL8, IL1β, MIP1α) in THF; type: cell-based, human
Sindbis virus (SINV) = type: cell-based; settings: 48 h
[7] = tested on: human umbilical microvascular endothelial cells; type: cell-based
[8] = tested on: Chikungunya virus (CHIKV); test: microbe, parasite or virus in culture; type: cell-based
human STING-CTD = biological target: T2, human STING-CTD (Homo sapiens, UniProt Q86WV6); test: Thermal shift assay (differential scanning fluorimetry), human STING-CTD; type: binding; settings: 1 μg recombinant protein, SYPRO Orange, various concentrations
T2 construct: human STING-C-terminal domain (CTD; AA 137-379); 6xHIS; made in house; host or cells: E. coli BL21 (DE3)pLysS
T2 sequence (Q86WV6 137-379): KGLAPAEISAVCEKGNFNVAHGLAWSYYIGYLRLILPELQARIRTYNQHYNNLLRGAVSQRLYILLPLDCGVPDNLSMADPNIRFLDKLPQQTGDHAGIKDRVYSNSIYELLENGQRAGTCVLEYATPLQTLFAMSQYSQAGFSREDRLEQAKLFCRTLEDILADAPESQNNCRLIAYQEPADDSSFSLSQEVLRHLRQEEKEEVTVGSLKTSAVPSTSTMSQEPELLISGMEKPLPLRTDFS

[9] = tested on: Venezuelan Equine Encephalitis Virus (VEEV); test: microbe, parasite or virus in culture; type: cell-based
Mx2 and ISG56 proteins = type: cell-based, human
[10] = tested on: IRF3/IFN-dependent luciferase (LUC) in THF-ISRE; type: cell-based, human
Vaccinia Virus (VACV) = type: cell-based
[11] = tested on: NF-κB-dependent LUC in THF reporter cells; type: cell-based, human
[12] = tested on: secreted bioactive type I or III interferon
THP-1 cells = type: cell-based, human
West Nile Virus (WNV) = type: cell-based

SMILES: Nc1nc2c(ncn2[C@@H]2O[C@@H]3COP(=O)(O)O[C@H]4[C@@H](O)[C@H](n5cnc6c(N)ncnc65)O[C@@H]4COP(=O)(O)O[C@@H]2[C@@H]3O)c(=O)[nH]1 [2′3′-cGAMP, reference compound]
- IRF3 S386 phosphorylation in cells lacking STING [1]: absence of IRF3 S386 phosphorylation
- IRF3 phosphorylation in cells lacking IPS-1 [1]: remains intact
- time post exposure at which phosphorylation of IRF3 S386 is detectable [1]: 1 h
- expression of IFIT1, IFIT2, IFNβ, ISG15, OAS and Viperin mRNA in PBMC [2]: similarly capable of activating transcription of these genes
- mRNA synthesis of IFIT1, IFIT2, ISG15, Viperin, OAS, Mx2 over a concentration range, compared with G10 [3]: stronger mRNA synthesis

SMILES: Cc1ccc2c(=O)c3cccc(CC(=O)O)c3oc2c1C [DMXAA, 5,6-dimethylxanthenone-4-acetic acid]
- serum associated CHIKV at 72 h post infection ([4]; 25 mg/kg intraperitoneally 3 h pre-infection, 1000 PFU CHIKV): undetectable by plaque assay
- serum associated CHIKV at 72 h post infection ([4]; 25 mg/kg intraperitoneally 6 h post infection): still undetectable
- serum associated CHIKV at 72 h post infection ([4]; mouse, in vivo): diminished relative to DMSO-treated animals but this difference was not statistically significant
- time post-treatment at which IRF3 phosphorylation is detectable (IRF3 phosphorylation): ≤ 1 h
- transcription of IFNβ, ISG15, IFIT2 and Viperin [5]: dose-dependent transcription

SMILES: O=C(NCc1ccco1)c1ccc2c(c1)N(Cc1c(F)cccc1Cl)C(=O)CS2 [G10, 4-(2-chloro-6-fluorobenzyl)-N-(furan-2-ylmethyl)-3-oxo-3,4-dihydro-2H-benzo[b][1,4]thiazine-6-carboxamide]
- thermal stability of purified mouse STING-CTD (mouse STING-CTD): did not increase the protein's thermal stability
- mRNA synthesis of endogenous NF-κB-dependent genes (IL8, IL1β, MIP1α) [6]: failed to stimulate mRNA synthesis
- IRF3 S386 phosphorylation in cells lacking STING [1]: elimination of G10-induced IRF3 S386 phosphorylation
- IRF3 phosphorylation in cells lacking IPS-1 [1]: functional
- phosphorylation of IRF3 S386 [1]: stimulates phosphorylation of IRF3
- time post exposure at which phosphorylation of IRF3 S386 is detectable [1]: 30 m
- SINV replication in cells lacking IPS-1 (Sindbis virus (SINV)): diminishes replication of all three virus types by multiple logs
- expression of IFIT1, IFIT2, IFNβ, ISG15, OAS and Viperin mRNA in PBMC [2]: to degrees that were proportional to compound concentration
- transcription of NF-κB-dependent genes MIP1α and IL1β in PBMC [2]: also transcriptionally induced
- cytotoxicity (THF cells): low cytotoxicity even at high concentrations
- IFNβ and IFNλ1 mRNA transcription [3]: leads to transcription of both IFNβ and IFNλ1 mRNAs
- ISG54, ISG15 and Viperin mRNA in cells lacking IPS-1 [3]: highly transcribed
- ISG54, ISG15 and Viperin mRNA in cells lacking STING [3]: remain comparatively unstimulated
- Mx2 and OAS mRNA induction [3]: substantial induction
- mRNA of IRF3/IFN-dependent genes (ISG54, ISG56, ISG15, Viperin) [3]: led to transcription of cellular genes triggered by IRF3/IFN-dependent signaling
- expression of IRF3-, IFN- and NF-κB-dependent genes in endothelial cells [7]: responded to G10 exposure by expressing IRF3-, IFN-, and NF-κB-dependent genes
- CHIKV replication in cells lacking IRF3 [8]: ability of G10 to block replication of CHIKV and VEEV is lost
- reduction of CHIKV replication [8]: by over three logs
- CHIKV replication in cells lacking IPS-1 ([8]; 48 h): diminishes replication of all three virus types by multiple logs
- CHIKV replication in cells lacking STING ([8]; 48 h): ability of G10 to block virus replication is absent
- IC90 ([8]; Chikungunya virus, read-out: IC90 CHIKV replication): 8.01 µM
- thermal stability of purified human STING-CTD (human STING-CTD): did not increase the protein's thermal stability
- VEEV replication in cells lacking IRF3 [9]: ability of G10 to block replication of CHIKV and VEEV is lost
- VEEV replication in cells lacking IPS-1 ([9]; 24 h): diminishes replication of all three virus types by multiple logs
- VEEV replication in cells lacking STING ([9]; 24 h): ability of G10 to block virus replication is absent
- IC90 ([9]; Venezuelan equine encephalitis virus, read-out: IC90 VEEV replication): 24.6 µM
- synthesis of Mx2 and ISG56 proteins (Mx2 and ISG56 proteins): capable of triggering synthesis of Mx2 and ISG56 proteins
- IFN/IRF3-dependent LUC expression [10]: able to induce LUC expression in a dose-dependent manner
- IRF3/IFN-dependent LUC expression in cells lacking IRF3 [10]: abrogated
- IRF3/IFN-dependent LUC expression in cells lacking STAT1 [10]: induce LUC expression in the absence of STAT1
- IRF3/IFN-dependent LUC induction in cells lacking IPS-1 [10]: strong LUC induction
- IRF3/IFN-dependent LUC induction in cells lacking STING [10]: fail to activate appreciable LUC
- LUC signal in high-throughput screen [10]: third highest signal of all those screened
- reduction of VACV growth (Vaccinia Virus (VACV)): by approximately one log
- NF-κB-dependent LUC transcription [11]: no G10-associated stimulation of NF-κB-dependent transcription was detected
- IFN secretion by cells lacking IPS-1 [12]: significantly diminished relative to wild type cells
- IFN secretion by cells lacking STING [12]: failed to secrete IFN
- IFN secretion by wild type THF cells [12]: IFN secretion was detected
- IRF3 activation or IRF3-dependent gene expression in THP-1 (THP-1 cells): does not induce IRF3 activation or IRF3-dependent gene expression
- reduction of WNV growth (West Nile Virus (WNV)): by less than one log
